± gives the expanded uncertainty stated by the source.
Settings: 101 kPa, Liquid, Voltage change across transformer (no electrode)

Compound	electrical conductivity (293.15 K)	electrical conductivity (303.15 K)	electrical conductivity (313.15 K)	electrical conductivity (323.15 K)
CCCC[n+]1ccccc1.F[B-](F)(F)F [1-butylpyridinium tetrafluoroborate]	0.181 ± 0.0036 S/m	0.321 ± 0.006 S/m	0.519 ± 0.01 S/m	0.785 ± 0.016 S/m
CCCC[n+]1cccc(C)c1.F[B-](F)(F)F [1-butyl-3-methylpyridinium tetrafluoroborate]	0.155 ± 0.0016 S/m	0.281 ± 0.003 S/m	0.461 ± 0.005 S/m	0.704 ± 0.007 S/m
CCCC[n+]1ccc(C)cc1.F[B-](F)(F)F [1-butyl-4-methylpyridinium tetrafluoroborate]	0.1318 ± 0.0013 S/m	0.254 ± 0.003 S/m	0.439 ± 0.004 S/m	0.687 ± 0.007 S/m

Reference: the NIST ThermoML archive (doi:10.1021/je301347v)
